What was measured:
Experiment in all cases: normalised response (% of control), CellTiter-Glo; higher = more viable cells (100 = DMSO, 0 = benzethonium chloride kill control)
Conditions in all cases: incubation time: 72 h
BT-474 = test system: BT-474
In short: (§1)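 Plates were normalised with 0.1 % DMSO as 100 and a positive kill control as 0. Breast cancer cell lines in 20 µl suspension had been seeded into 384-well plates with compound at 5 concentrations in 10-fold steps over a compound-specific 10,000-fold range, incubated 72 h, and read for CellTox Green fluorescence (485/520 nm) followed by CellTiter-Glo luminescence. Each value is the normalised signal at a single concentration.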

BT-549 = test system: BT-549
In short: as §1

CAL-120 = test system: CAL-120
In short: as §1

CAL-148 = test system: CAL-148
In short: as §1

CAL-51 = test system: CAL-51
In short: as §1

CAL-85-1 = test system: CAL-85-1
In short: as §1

DU-4475 = test system: DU-4475
In short: as §1

HCC1143 = test system: HCC1143
In short: as §1

HCC1599 = test system: HCC1599
In short: as §1

HCC1937 = test system: HCC1937
In short: as §1

HDQ-P1 = test system: HDQ-P1
In short: as §1

Hs578T = test system: Hs578T
In short: as §1

MCF-10A = test system: MCF-10A
In short: as §1

MDA-MB-231 = test system: MDA-MB-231
In short: as §1

MDA-MB-436 = test system: MDA-MB-436
In short: as §1

MDA-MB-453 = test system: MDA-MB-453
In short: as §1

MDA-MB-468 = test system: MDA-MB-468
In short: as §1

MFM-223 = test system: MFM-223
In short: as §1

SK-BR-3 = test system: SK-BR-3
In short: as §1

SMILES | normalised response (BT-474) [%] | normalised response (BT-549) [%] | normalised response (CAL-120) [%] | normalised response (CAL-148) [%] | normalised response (CAL-51) [%] | normalised response (CAL-85-1) [%] | normalised response (DU-4475) [%] | normalised response (HCC1143) [%] | normalised response (HCC1599) [%] | normalised response (HCC1937) [%] | normalised response (HDQ-P1) [%] | normalised response (Hs578T) [%] | normalised response (MCF-10A) [%] | normalised response (MDA-MB-231) [%] | normalised response (MDA-MB-436) [%] | normalised response (MDA-MB-453) [%] | normalised response (MDA-MB-468) [%] | normalised response (MFM-223) [%] | normalised response (SK-BR-3) [%]
N#Cc1ccc(COC[C@H]2O[C@@H](n3c(NCc4ccc(Cl)c(Cl)c4)nc4c(N)ncnc43)[C@H](O)[C@@H]2O)cc1 (1000 nM) | 81.8 | 89.9 | 101 | 98.5 | 110 | 107 | 86 | 97.2 | 116 | 86.9 | 98.7 | 86.9 | 96.6 | 89.8 | 109 | 98.4 | 93.7 | 98.9 | 95.3
COc1cc(OC2CCN(C)CC2)ccc1Nc1ncc2c(n1)n(C1CCCC1)c(=O)n2C [AZ 3146] (1000 nM) | 96.5 | 104 | 98 | 94.5 | 74.5 | 98.2 | 94.6 | 99.2 | 112 | 97.2 | 98.4 | 100 | 92.5 | 96.7 | 110 | 117 | 104 | 98.2 | 74.6
CN(C)c1nc(N(C)C)nc(N(C)C)n1 [Altretamine] (1000 nM) | 101 | 103 | 99.5 | 95.2 | 108 | 102 | 98.9 | 103 | 118 | 99.4 | 105 | 110 | 103 | 100 | 99.3 | 115 | 107 | 103 | 107
O=C(/C=C/c1cccc(S(=O)(=O)Nc2ccccc2)c1)NO [Belinostat] (1000 nM) | 23.1 | 59 | 39.8 | 28.5 | 31.7 | 44.5 | 23.1 | 47.3 | 44.5 | 69.9 | 68.8 | 50.6 | 55.6 | 36 | 51.9 | 14.4 | 31.8 | 34.2 | 15.7
O=P1(N(CCCl)CCCl)NCCCO1 (stereo not given) [Cyclophosphamide] (4000 nM) | 93.1 | 103 | 94.4 | 100 | 99.4 | 92.1 | 104 | 104 | 109 | 99 | 98 | 111 | 103 | 99.5 | 97.8 | 111 | 92.9 | 106 | 107
C=C1C[C@@H]2[C@H](CC[C@]3(C)C(=O)CC[C@@H]23)[C@@]2(C)C=CC(=O)C=C12 [Exemestane] (1000 nM) | 103 | 92.5 | 102 | 97.7 | 80.5 | 98.3 | 105 | 107 | 115 | 103 | 99.3 | 100 | 112 | 106 | 102 | 105 | 101 | 110 | 108
COc1cc2ncnc(Nc3ccc(F)c(Cl)c3)c2cc1OCCCN1CCOCC1 [Gefitinib] (1000 nM) | 101 | 97.7 | 103 | 80 | 103 | 58.4 | 99.7 | 96.2 | 104 | 87.9 | 69 | 106 | 34.2 | 101 | 103 | 95.2 | 75.3 | 100 | 51.9
O=C(Nc1ccncc1)C(=O)c1cn(Cc2ccc(Cl)cc2)c2ccccc12 [Indibulin] (1000 nM) | 70.8 | 42.8 | 66.9 | 93.2 | 25.5 | 38.3 | 91.8 | 67.2 | 63.1 | 73.9 | 80.1 | 57.8 | 89.8 | 78 | 42.2 | 67.8 | 37.7 | 60 | 33.2
NC(=O)c1ccc(I)c([N+](=O)[O-])c1 [Iniparib] (1000 nM) | 90 | 101 | 93.2 | 83.3 | 126 | 94.5 | 92.3 | 87.7 | 105 | 97.7 | 97 | 94.6 | 82 | 90 | 88.2 | 89.2 | 83.8 | 81.3 | 78
CCc1c2c(nc3ccc(OC(=O)N4CCC(N5CCCCC5)CC4)cc13)-c1cc3c(c(=O)n1C2)COC(=O)[C@]3(O)CC [Irinotecan] (1000 nM) | 91 | 78.2 | 83.7 | 66.3 | 96.6 | 104 | 82.1 | 88.1 | 109 | 91.8 | 95.5 | 101 | 88.3 | 98.1 | 64.5 | 152 | 82 | 104 | 78.8
